According to ChEMBL document CHEMBL1157021, “Synthesis, structure and affinity of novel 3-alkoxy-1,2-dihydro-3H-1,4-benzodiazepin-2-ones for CNS central and peripheral benzodiazepine receptors” (Eur J Med Chem, 2010):

How the values were obtained:
[1] = Displacement of [3H]flumazenil from central benzodiazepine receptor in Wistar rat brain synaptosomal membrane after 60 mins by scintillation counting
Translocator protein = Translocator protein (Rattus norvegicus, UniProt P16257); assay: Displacement of [3H]PK11195 from peripheral benzodiazepine receptor in Wistar rat brain synaptosomal membrane after 120 mins by scintillation counting
Translocator protein, sequence (P16257 whole entry, looked up): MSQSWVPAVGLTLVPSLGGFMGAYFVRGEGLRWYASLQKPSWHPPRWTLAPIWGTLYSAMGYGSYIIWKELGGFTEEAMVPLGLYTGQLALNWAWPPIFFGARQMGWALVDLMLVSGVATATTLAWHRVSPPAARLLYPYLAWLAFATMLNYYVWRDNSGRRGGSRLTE

[2] = Binding affinity to central benzodiazepine receptor

SMILES | IC50 [1] | IC50 (Translocator protein) | Ki [2]
COCCO[C@H]1N=C(c2ccccc2)c2cc(Br)ccc2NC1=O | 4930 nM | > 1000 nM | –
COCCOC1N=C(c2ccccc2)c2cc(Br)ccc2NC1=O (racemic) | 510 nM | > 1000 nM | –
O=C1Nc2ccc(Br)cc2C(c2ccccc2)=NC1OCCO (centres undefined) | 540 nM | > 1000 nM | –
CCOC1N=C(c2ccccc2Cl)c2cc(Br)ccc2NC1=O (racemic) | 52 nM | > 1000 nM | –
O=C1Nc2ccc(Br)cc2C(c2ccccc2Cl)=NC1OCCO (racemic) | 48 nM | > 1000 nM | –
CCOC1N=C(c2ccccc2)c2cc(Br)ccc2NC1=O (racemic) | > 1000 nM | > 1000 nM | –
COCCO[C@@H]1N=C(c2ccccc2)c2cc(Br)ccc2NC1=O | 245 nM | > 1000 nM | –
O=C(O)CCC(=O)OC1N=C(c2ccccc2Cl)c2cc(Br)ccc2NC1=O (centres undefined) [CINAZEPAM] | – | – | 72 nM
COCCOC1N=C(c2ccccc2Cl)c2cc(Br)ccc2NC1=O (racemic) | 9 nM | > 1000 nM | –
CCOC1N=C(c2ccccc2)c2cc(C)ccc2NC1=O (racemic) | > 1000 nM | > 1000 nM | –
